Experimental data: patent publication US20140286903A1, “Substituted Purine Nucleosides, Phosphoramidate and Phosphordiamidate Derivatives for Treatment if Viral Infections” (INHIBITEX, INC., priority 2011, published 2014)

How the values were obtained:
[1] = Cytotoxicity assay (CellTiter-Glo); type: cell-based; conditions: human, 72 h incubation, concentration resulting in 50% luminescent signal
Protocol: (§1) Further to the above Examples, representative compounds, prepared according to the examples were tested for potency in an HCV replicon assay (Genotype 1b) for activity against the virus (EC50) and toxicity to the cells (CC50).
(§2) Huh7 Replicon Cell Lines and Cell Culture Conditions: A luciferase-reporter genotype 1b subgenomic replicon cell line, and a genotype 1a full-length replicon cell line were obtained from Apath, LLC, Brooklyn, N.Y.: All cell lines were passaged twice a week by splitting 4 or 6 fold. Cells were maintained in DMEM-high glucose medium (HyClone, Logan, Utah) supplemented with 9% FBS (HyClone), 2 mM glutamine (Invitrogen, Carlsbad, Calif.), 100 U/mL PenStrep (Invitrogen). Media also contained 0.25 mg/mL of the antibiotic G-418 to maintain stable expression of the replicon (Invitrogen). Incubation was performed at 37° C. in 5% CO2 atmosphere. Replicon cell lines were used until they accumulated 15-to-18 passages, after which cells were restarted from the frozen stock. Seeding cell counts were routinely determined using an automatic Cedex HiRes cell counter (Flownomics Analytical Instruments, Madison, Wis.) or manually using INCYTO C-Chip™ Disposable Hemacytometers (Fisher Scientific, Pittsburg, Pa.).
Cytotoxicity Assay. Cells were seeded into 96-well plates at a density of 2×10^4 cells per well. 24 h after cell plating, 11 serial 2× compound dilutions, starting with 100 µM, were applied to the testing plates (3 repeats per compound dilution). Each testing plate was run with a “no-compound” control. Incubation with compounds was continued at 37° C. in a CO2 incubator for 72 h. To determine cell viability, the CellTiter-Glo® assay (Promega, Madison, Wis.) was performed according to the manufacturer's protocol. The compound concentration resulting in 50% luminescent signal was reported as the CC50 concentration.

[2] = system: HCV replicon (Genotype 1b); assay: Luciferase genotype 1b replicon potency assay; type: cell-based, hepatitis C virus; conditions: Hepatitis C virus, Huh-7, Huh7 luciferase-reporter genotype 1b subgenomic replicon cells; Renilla luciferase reporter activity; 50% decrease vs untreated cells
Protocol: as §1, §2
Luciferase Genotype 1b Replicon Potency Assay. Replicon cells were seeded into white 96-well plates (Nunc/VWR) at a density of 2×10^4 cells/well in medium without G-418. A Stacker Multidrop Liquid Dispenser (MTX Lab Systems, Vienna, Va.) was employed to ensure uniform and fast cell seeding into multiple plates. 18-24 h after cell plating, inhibitors were added and cells were incubated for additional 24, 48, or 72 h (as indicated). Compounds were tested in triplicates and quadruplicates at 3× or 4× serial dilutions over a range of 0.0001-to-10 μM concentrations. HCV replication was monitored by Renilla luciferase reporter activity assay using Renilla luciferase reporter (Promega, Madison, Wis.) and a Veritas Luminometer (Turner Biosystems, Sunnyvale, Calif.). 50% and 90% inhibitory concentration (IC50 and IC90) values were calculated as the concentration of compound that results correspondingly in 50% and 90% decreases in the reporter expression as compared to untreated cells. The values were determined by non-linear regression (four-parameter sigmoidal curve fitting) analysis.

[3] = Huh7 HCV replicon cells (genotype 1b)

CCOc1nc(N)nc2c1ncn2[C@@H]1O[C@H](CO)[C@@H](F)[C@@]1(C)O [Example 6, (2R,3S,4R,5R)-2-(2-amino-6-ethoxy-9H-purin-9-yl)-4-fluoro-5-(hydroxymethyl)-3-methyltetrahydrofuran-3-ol] gave a CC50 at 72 h [1, 3] of over 100 µM and an IC50 [2] of over 100000 nM.
COc1nc(N)nc2c1ncn2[C@@H]1O[C@H](COP(=O)(N[C@@H](C)C(=O)OC2CCOCC2)Oc2cccc3ccccc23)[C@@H](F)[C@@]1(C)O (stereo partly drawn) [Example 19, (2S)-Tetrahydro-2H-pyran-4-yl 2-((((2R,3R,4S,5R)-5-(2-amino-6-methoxy-9H-purin-9-yl)-3-fluoro-4-hydroxy-4-methyltetrahydrofuran-2-yl)methoxy)(naphthalen-1-yloxy)phosphorylamino)propanoate] showed a CC50 at 72 h [1] of 77 µM and an IC50 [2] of 1400 nM.
For C[C@H](NP(=O)(OC[C@H]1O[C@@H](n2ccc(N)nc2=O)[C@](C)(O)[C@@H]1F)Oc1cccc2ccccc12)C(=O)OCC(C)(C)C (stereo partly drawn) [Example 32, (2S)-Neopentyl 2-((((2R,3R,4S,5R)-5-(4-amino-2-oxopyrimidin-1(2H)-yl)-3-fluoro-4-hydroxy-4-methyltetrahydrofuran-2-yl)methoxy)(naphthalen-1-yloxy)phosphorylamino)propanoate], the CC50 at 72 h [1] was over 100 µM and the IC50 [2] was over 40000 nM.
Work on C[C@@]1(O)[C@H](F)[C@@H](CO)O[C@H]1n1cnc2c(N)ncnc21 [Example 8, (2R,3S,4R,5R)-2-(6-Amino-9H-purin-9-yl)-4-fluoro-5-(hydroxymethyl)-3-methyltetrahydrofuran-3-ol] yielded a CC50 at 72 h [1, 3] of over 100 µM and an IC50 [2] of over 100000 nM.
Work on CCOc1nc(N)nc2c1ncn2[C@@H]1O[C@H](COP(=O)(N[C@@H](C)C(=O)OCC(C)(C)C)Oc2cccc3ccccc23)[C@@H](F)[C@@]1(C)O (stereo partly drawn) [Example 20, (2S)-Neopentyl 2-((((2R,3R,4S,5R)-5-(2-amino-6-ethoxy-9H-purin-9-yl)-3-fluoro-4-hydroxy-4-methyltetrahydrofuran-2-yl)methoxy)(naphthalen-1-yloxy)phosphorylamino)propanoate] yielded a CC50 at 72 h [1] of 23 µM and an IC50 [2] of 620 nM.
For C[C@@]1(O)[C@H](F)[C@@H](CO)O[C@H]1n1ccc(=O)[nH]c1=O [Example 10, 1-((2R,3S,4R,5R)-4-Fluoro-3-hydroxy-5-(hydroxymethyl)-3-methyltetrahydrofuran-2-yl)pyrimidine-2,4(1H,3H)-dione], the CC50 at 72 h [1, 3] was over 100 µM and the IC50 [2] was 23000 nM.
COc1nc(N)nc2c1ncn2[C@@H]1O[C@H](COP(=O)(N[C@@H](C)C(=O)OCC(C)(C)C)N[C@@H](C)C(=O)OCC(C)(C)C)[C@@H](F)[C@@]1(C)O [Example 27, (2S,2′S)-Neopentyl 2,2′-((((2R,3R,4S,5R)-5-(2-amino-6-methoxy-9H-purin-9-yl)-3-fluoro-4-hydroxy-4-methyltetrahydrofuran-2-yl)methoxy)phosphoryl)bis(azanediyl)dipropanoate] showed a CC50 at 72 h [1, 3] of over 100 µM and an IC50 [2] of 2100 nM.
With COc1nc(N)nc2c1ncn2[C@@H]1O[C@H](COP(=O)(N[C@@H](C)C(=O)OCc2ccccc2)Oc2cccc3ccccc23)[C@@H](F)[C@@]1(C)O (stereo partly drawn) [Example 12, (2S)-Benzyl 2-((((2R,3R,4S,5R)-5-(2-amino-6-methoxy-9H-purin-9-yl)-3-fluoro-4-hydroxy-4-methyltetrahydrofuran-2-yl)methoxy)(naphthalen-1-yloxy)phosphorylamino)propanoate] the CC50 at 72 h [1] was 48 µM and the IC50 [2] was 770 nM.
With COc1nc(N)nc2c1ncn2[C@@H]1O[C@H](CO)[C@H](F)[C@@]1(C)O [Example 11, (2R,3S,4S,5R)-2-(2-Amino-6-methoxy-9H-purin-9-yl)-4-fluoro-5-(hydroxymethyl)-3-methyltetrahydrofuran-3-ol] the CC50 at 72 h [1, 3] was over 100 µM and the IC50 [2] was over 100000 nM.
COc1nc(N)nc2c1ncn2[C@@H]1O[C@H](COP(=O)(N[C@@H](C)C(=O)OCC(C)(C)C)Oc2cccc3ccccc23)[C@H](F)[C@@]1(C)O (stereo partly drawn) [Example 29, (2S)-Neopentyl 2-((((2R,3S,4S,5R)-5-(2-amino-6-methoxy-9H-purin-9-yl)-3-fluoro-4-hydroxy-4-methyltetrahydrofuran-2-yl)methoxy)(naphthalen-1-yloxy)phosphorylamino)propanoate] showed a CC50 at 72 h [1] of 40 µM and an IC50 [2] of 26000 nM.
For C[C@@]1(O)[C@H](F)[C@@H](CO)O[C@H]1n1ccc(N)nc1=O [Example 9, 4-Amino-1-((2R,3S,4R,5R)-4-fluoro-3-hydroxy-5-(hydroxymethyl)-3-methyltetrahydrofuran-2-yl)pyrimidin-2(1H)-one], the CC50 at 72 h [1, 3] was over 100 µM and the IC50 [2] was over 100000 nM.
For COc1nc(N)nc2c1ncn2[C@@H]1O[C@H](COP(=O)(N[C@@H](C)C(=O)OCC(C)(C)C)Oc2cccc3ccccc23)[C@@H](F)[C@@]1(C)O (stereo partly drawn) [Example 16, (2S)-Neopentyl 2-((((2R,3R,4S,5R)-5-(2-amino-6-methoxy-9H-purin-9-yl)-3-fluoro-4-hydroxy-4-methyltetrahydrofuran-2-yl)methoxy)(naphthalen-1-yloxy)phosphorylamino)propanoate], the CC50 at 72 h [1] was 29 µM and the IC50 [2] was 370 nM.
In the case of CCOc1nc(N)nc2c1ncn2[C@@H]1O[C@H](COP(=O)(N[C@@H](C)C(=O)OC2CCCC2)Oc2cccc3ccccc23)[C@@H](F)[C@@]1(C)O (stereo partly drawn) [Example 21, (2S)-Cyclopentyl 2-((((2R,3R,4S,5R)-5-(2-amino-6-ethoxy-9H-purin-9-yl)-3-fluoro-4-hydroxy-4-methyltetrahydrofuran-2-yl)methoxy)(naphthalen-1-yloxy)phosphorylamino)propanoate], the CC50 at 72 h [1] is reported as 28 µM and the IC50 [2] is reported as 400 nM.
In the case of C[C@H](NP(=O)(OC[C@H]1O[C@@H](n2cnc3c(N4CCC4)nc(N)nc32)[C@](C)(O)[C@@H]1F)Oc1cccc2ccccc12)C(=O)OCC(C)(C)C (stereo partly drawn) [Example 23, (2S)-Neopentyl 2-((((2R,3R,4S,5R)-5-(2-amino-6-(azetidin-1-yl)-9H-purin-9-yl)-3-fluoro-4-hydroxy-4-methyltetrahydrofuran-2-yl)methoxy)(naphthalen-1-yloxy)phosphorylamino)propanoate], the CC50 at 72 h [1] is reported as 49 µM and the IC50 [2] is reported as 900 nM.
